Series [1] deals with MCF-7 breast carcinoma cell line. Kind of series: MTT cytotoxic activity against MCF-7 breast carcinoma cell line. Conditions: Homo sapiens, MCF7, read-out: IC50 (μM) MCF-7.
Series [2] has as its target T1, EGFR kinase (Homo sapiens, UniProt P00533).
T1 construct: purchased BPS Bioscience 40321
Kind of series: EGFR-TK inhibition assay (BPS Bioscience EGFR Kinase Assay Kit). Format: biochemical. The text has this:
S4.2.1. Cytotoxic activity evaluation
adenocarcinoma (MCF-7) cell line.
Dimethyl sulphoxide (DMSO) in
S4.2.2. EGFR kinase Assay

Series [3] relates to MCF-7 cells. Put plainly: Cell cycle analysis by flow cytometry (PI staining). Type of series: cell-based. The procedure:
It is well documented that most tyrosine kinase inhibitors exert strong antiproliferative and pro-apoptotic effect.[38] […] These findings are in agreement with the previously observed for EGFR-TK structural analogues.[39]
S4.2.3. Cell cycle analysis of compound 6h
Cell cycle analysis in MCF-7 cells was investigated using fluorescent […] (BioVision EZCellTM Cell Cycle Analysis Kit Catalog #K920) by flow cytometry assay. MCF-7 cells at a density of 2 × 10^5 per well were harvested and washed twice in PBS. After that, the cells were incubated at 37 °C and 5% CO2. The medium was incubated with the tested compound 6h at the IC50 (µM) for 48 h, washed twice in PBS, fixed with 70% ethanol, rinsed again with PBS. Afterward, medium was stained with DNA fluorochrome PI for 15 min at 37 °C. The samples were immediately analyzed using Facs Calibur flow cytometer (Becton and Dickinson, Heidelberg, […]
S4.2.4. Apoptosis assay for compound 6h
(1 picture or pasted object on this page, not shown here)

Series [4] relates to MCF-7 cells. Kind of series: Annexin V FITC/PI apoptosis staining assay by flow cytometry. Type of series: cell-based. The following applies: 2.71 μM, 48 h. The text has this:
In addition, an increase in the primary apoptotic cells was also observed. It is noteworthy that, the percentage of primary apoptosis was rise from 0.39 to 9.55% as compared to DMSO control (Fig. 4). According to these findings, it could be concluded that this set of compounds could halt MCF-7 cells in G1 phase and provoke apoptotic cellular death.
Apoptosis in MCF-7 cells was investigated using fluorescent Annexin V-FITC/ PI detection kit (BioVision Annexin V-FITC Apoptosis Detection Kit, Catalog #: K101) by flow cytometry assay. MCF-7 cells at a density of 2 × 10^5 per well were treated with compound 6h at the IC50 (µM) for 48 h, then the cells were harvested and stained with Annexin V-FITC/ PI dye for 15 min in the dark at 37 °C. The samples were immediately analyzed using FACS Calibur flow cytometer (Becton and Dickinson, […]

Series [5] relates to p53. Kind of series: Apoptotic marker determination by qRT-PCR: p53. Format: cell-based. Conditions: MCF-7 cells, 2.71 μM, 48 h, compared to DMSO controls. The text has this:
(§1) p53 is a transcription factor that both initiates and suppresses a number of target genes involved in cancer progression and apoptosis.[40] The p53 protein level increase during cellular stress and cytotoxic drugs by increased transcription or increased stability due to post-translational modifications such as phosphorylation.[41] The ability of p53 to modulate caspase activation and apoptosis induction is critical to its role as tumor suppressor.[42] Coordinately, p53 activation promotes the loss of mitochondrial potential ultimately leading to caspase activation and apoptosis.[43] […] An increase in the level of p53 was detected in the tested cell line compared with controls at 48 h. The increased expression of p53 level was coupled with increase in the level of caspase 9 in compound 6h-treated MCF-7 cell line at 48 h. The levels of p53 and caspase 9 were increased by 7.4- and 8.7-fold, respectively compared with controls (Fig. 5).
(§2) MCF-7 cells were treated with 2.71 μM of tested hybrid for 48 h before qRT-PCR measurement and compared to untreated controls. (A) p53 level; (B) caspase 9 level.

Series [6] has as its system caspase 9. Put plainly: Apoptotic marker determination by qRT-PCR: caspase 9. Format: cell-based. The following applies: MCF-7 cells, 2.71 μM, 48 h, compared to DMSO controls.
Source text: as §1, §2

T1 sequence (P00533 25-1210): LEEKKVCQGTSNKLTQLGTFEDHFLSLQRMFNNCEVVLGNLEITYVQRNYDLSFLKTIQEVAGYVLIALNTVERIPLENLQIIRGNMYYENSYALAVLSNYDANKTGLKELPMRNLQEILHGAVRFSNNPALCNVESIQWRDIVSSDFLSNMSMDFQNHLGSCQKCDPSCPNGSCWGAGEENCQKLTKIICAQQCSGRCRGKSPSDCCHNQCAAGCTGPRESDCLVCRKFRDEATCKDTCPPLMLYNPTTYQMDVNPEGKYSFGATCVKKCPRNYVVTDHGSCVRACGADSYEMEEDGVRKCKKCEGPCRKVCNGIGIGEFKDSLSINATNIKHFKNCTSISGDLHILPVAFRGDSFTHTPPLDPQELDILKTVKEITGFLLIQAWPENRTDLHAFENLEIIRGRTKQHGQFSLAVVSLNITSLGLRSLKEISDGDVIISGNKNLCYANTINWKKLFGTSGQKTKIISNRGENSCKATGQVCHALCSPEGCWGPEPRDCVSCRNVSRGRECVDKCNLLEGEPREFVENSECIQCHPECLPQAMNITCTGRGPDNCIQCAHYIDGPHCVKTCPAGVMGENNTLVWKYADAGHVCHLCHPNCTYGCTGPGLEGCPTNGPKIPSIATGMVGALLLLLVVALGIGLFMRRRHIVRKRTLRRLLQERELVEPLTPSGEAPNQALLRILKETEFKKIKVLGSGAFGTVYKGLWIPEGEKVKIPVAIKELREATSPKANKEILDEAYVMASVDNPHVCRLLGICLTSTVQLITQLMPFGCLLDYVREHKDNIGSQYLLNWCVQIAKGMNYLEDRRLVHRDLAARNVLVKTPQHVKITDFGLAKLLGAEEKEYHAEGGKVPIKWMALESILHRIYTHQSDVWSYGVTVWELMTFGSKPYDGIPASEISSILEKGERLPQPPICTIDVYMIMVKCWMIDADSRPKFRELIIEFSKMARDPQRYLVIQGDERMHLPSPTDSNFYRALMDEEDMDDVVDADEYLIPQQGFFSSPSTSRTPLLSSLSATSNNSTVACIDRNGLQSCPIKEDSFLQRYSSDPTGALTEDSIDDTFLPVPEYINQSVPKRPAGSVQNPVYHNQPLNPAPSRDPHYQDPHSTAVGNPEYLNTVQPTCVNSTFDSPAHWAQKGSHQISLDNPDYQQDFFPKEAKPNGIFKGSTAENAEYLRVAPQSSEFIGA

For `COc1ccc(C(=O)N/C(=C\c2cc(OC)c(OC)c(OC)c2)C(=O)NNC(=O)c2cc(-c3ccc(Br)cc3)nc3ccccc23)cc1` [Compound 6d, (Z)-N-(3-(2-(2-(4-Bromophenyl)quinoline-4-carbonyl)hydrazinyl)-3-oxo-1-(3,4,5-trimethoxyphenyl)prop-1-en-2-yl)-4-methoxybenzamide], the melting point was in the range of 208 to 210 °C. Further, in series [1], the IC50 was 17.1 ± 0.55 µM.

As for `COc1ccc(C(=O)N/C(=C\c2ccc(OC)c(OC)c2OC)C(=O)NNC(=O)c2cc(-c3ccc(Br)cc3)nc3ccccc23)cc1` [Compound 6c, (Z)-N-(3-(2-(2-(4-Bromophenyl)quinoline-4-carbonyl)hydrazinyl)-3-oxo-1-(2,3,4-trimethoxyphenyl)prop-1-en-2-yl)-4-methoxybenzamide], the melting point lay in the range of 192 to 194 °C. The IC50 in series [1] worked out at 51.8 ± 1.54 µM.

For the molecule `COc1ccc(C(=O)N/C(=C\c2cc(Br)c(OC(C)=O)c(Br)c2)C(=O)NNC(=O)c2cc(-c3ccc(Br)cc3)nc3ccccc23)cc1` [Compound 6i, (Z)-2,6-Dibromo-4-(3-(2-(2-(4-bromophenyl)quinoline-4-carbonyl)hydrazinyl)-2-(4-methoxybenzamido)-3-oxoprop-1-enyl)phenyl acetate], the melting point lay within 217 to 219 °C. For the same molecule, the IC50 in series [1] worked out at 8.77 ± 0.28 µM.

As to `COc1ccc(C(=O)N/C(=C\c2ccc(C)cc2)C(=O)NNC(=O)c2cc(-c3ccc(Br)cc3)nc3ccccc23)cc1` [Compound 6a, (Z)-N-(3-(2-(2-(4-Bromophenyl)quinoline-4-carbonyl)hydrazinyl)-3-oxo-1-p-tolylprop-1-en-2-yl)-4-methoxybenzamide], the melting point lay within 246 to 248 °C. This molecule also registered an IC50 in series [2] of 0.31 µM. Further, in series [1], the IC50 is 3.39 ± 0.11 µM.

`COc1ccc(C(=O)N/C(=C\c2ccc(OC)c(OC)c2)C(=O)NNC(=O)c2cc(-c3ccc(Br)cc3)nc3ccccc23)cc1` [Compound 6b, (Z)-N-(3-(2-(2-(4-Bromophenyl)quinoline-4-carbonyl)hydrazinyl)-1-(3,4-dimethoxyphenyl)-3-oxoprop-1-en-2-yl)-4-methoxybenzamide] registered a melting point of 235 to 237 °C. In addition, the IC50 in series [1] amounted to 5.94 ± 0.17 µM.

Turning to `COc1ccc(C(=O)N/C(=C\c2ccc(Cl)cc2)C(=O)NNC(=O)c2cc(-c3ccc(Br)cc3)nc3ccccc23)cc1` [Compound 6f, (Z)-N-(3-(2-(2-(4-Bromophenyl)quinoline-4-carbonyl)hydrazinyl)-1-(4-chlorophenyl)-3-oxoprop-1-en-2-yl)-4-methoxybenzamide], the melting point lay in the range of 276 to 278 °C. In series [1], the IC50 is 26 ± 0.84 µM.

As to `COc1ccc(C(=O)N/C(=C\c2ccc([N+](=O)[O-])cc2)C(=O)NNC(=O)c2cc(-c3ccc(Br)cc3)nc3ccccc23)cc1` [Compound 6h, (Z)-N-(3-(2-(2-(4-Bromophenyl)quinoline-4-carbonyl)hydrazinyl)-1-(4-nitrophenyl)-3-oxoprop-1-en-2-yl)-4-methoxybenzamide], the IC50 turned out to be 0.22 µM in series [2] and 2.71 ± 0.09 µM in series [1]. Moreover, the “G1 phase arrest, fold more than DMSO controls” value in series [3] (2.71 μM) is listed as 1.3 fold. Further, in series [3] (2.71 μM (IC50) of compound, 48 h, DMSO control 15.56%), the “percentage of cells in G2/M phase” value is on record as 9.37%. Moreover, the “percentage of cells in S phase” value in series [3] (2.71 μM (IC50) of compound, 48 h, DMSO control 37.51%) is on record as 28.48%. Besides, the “proportion of cells in G1 phase” value in series [3] (2.71 μM (IC50) of compound, 48 h, DMSO control 46.93%) is on record as 62.15%. For the same molecule, the “percentage of secondary cellular apoptosis” value in series [4] (DMSO control 0.11%) came out at 17.78%. For the same molecule, the “percentage of primary apoptosis” value in series [4] (DMSO control 0.39%) was 9.55%. Besides, in series [5], the “increase of p53 level vs controls” value was 7.4 fold. Further, the “increase of caspase 9 level vs controls” value in series [6] is 8.7 fold.

Molecule `COc1ccc(C(=O)N/C(=C\c2ccco2)C(=O)NNC(=O)c2cc(-c3ccc(Br)cc3)nc3ccccc23)cc1` [Compound 5, (Z)-N-(3-(2-(2-(4-Bromophenyl)quinoline-4-carbonyl)hydrazinyl)-1-(furan-2-yl)-3-oxoprop-1-en-2-yl)-4-methoxybenzamide] yielded a melting point of 257 to 259 °C. For the same molecule, in series [1], the IC50 stood at 12.5 ± 0.4 µM.

For the molecule `COc1ccc(C(=O)N/C(=C\c2ccc(F)cc2)C(=O)NNC(=O)c2cc(-c3ccc(Br)cc3)nc3ccccc23)cc1` [Compound 6e, (Z)-N-(3-(2-(2-(4-Bromophenyl)quinoline-4-carbonyl)hydrazinyl)-1-(4-fluorophenyl)-3-oxoprop-1-en-2-yl)-4-methoxybenzamide], the melting point fell in the range of 258 to 260 °C. For the same molecule, the IC50 in series [1] turned out to be 21.2 ± 0.68 µM.

As to `COc1cccc2c1C(=O)c1c(O)c3c(c(O)c1C2=O)C[C@@](O)(C(=O)CO)C[C@@H]3O[C@H]1C[C@H](N)[C@H](O)[C@H](C)O1` [Dox, Doxorubicin, reference compound], the IC50 in series [1] stood at 6.18 ± 0.2 µM.

In the case of `COc1ccc(C(=O)N/C(=C\c2ccc(Br)cc2)C(=O)NNC(=O)c2cc(-c3ccc(Br)cc3)nc3ccccc23)cc1` [Compound 6g, (Z)-N-(1-(4-Bromophenyl)-3-(2-(2-(4-bromophenyl)quinoline-4-carbonyl)hydrazinyl)-3-oxoprop-1-en-2-yl)-4-methoxybenzamide], the melting point fell in the range of 261 to 263 °C. For the same molecule, the IC50 in series [1] was found to be 39.1 ± 1.26 µM.

The values above are taken from paper PMC11273260.
